Two substances from publication PMC11845477, “Exploring the principles behind antibiotics with limited resistance” (Nature Communications, 2025) can be followed below.

The subject of test [1] is P. aeruginosa ATCC BAA-3107 (SEN) and P. aeruginosa LESB58 (MDR). Put plainly: microbe, parasite or virus in culture. The test is classed as cell-based, Pseudomonas aeruginosa. To be noted: for MIC: across three biological replicates. The method, boiled down:
(§1)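 Broth microdilution in cation-adjusted Mueller-Hinton Broth 2 (except SCH79797), 11–16-step serial dilutions, 5 × 10^5 cells/mL, 37 °C with shaking for 18 h, 2 replicates. MIC is the lowest concentration giving complete growth inhibition (OD600 < 0.05); relative MIC = MIC evolved/MIC ancestor.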

Test [2] deals with K. pneumoniae ATCC 10031 (SEN) and K. pneumoniae ATCC 700603 (MDR). The test is described as follows: Frequency-of-resistance (FoR) assay, relative MIC of mutants. The test is classed as cell-based, Klebsiella pneumoniae. The method, boiled down:
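About 10^10 cells per strain were plated on MHB agar containing antibiotic at concentrations where the strain is susceptible, 48 h at 37 °C, in triplicate. Relative MIC = MICevolved/MICancestor.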

For test [3] the test system is unchanged. The test is described as follows: microbe, parasite or virus in culture. The test is classed as cell-based, Klebsiella pneumoniae. To be noted: for MIC: across three biological replicates. Put shortly:
as §1

In test [4] the test system is A. baumannii ATCC 17978 (SEN) and A. baumannii ATCC BAA-1605 (MDR). The test is described as follows: microbe, parasite or virus in culture. The test is classed as cell-based, Acinetobacter baumannii. The conditions noted are these: for MIC: across three biological replicates. Put shortly:
as §1

For test [5], the system named is E. coli ATCC 25922 (SEN) and E. coli NCTC13846 (MDR). The test is described as follows: microbe, parasite or virus in culture. The test is classed as cell-based, Escherichia coli. The conditions noted are these: for MIC: across three biological replicates. Put shortly:
as §1

Where [6] appears, read: Klebsiella pneumoniae ATCC 10031 (KP-SEN), evolved line 1.
[7] abbreviates: Klebsiella pneumoniae ATCC 10031 (KP-SEN), evolved line 2.
Setting [8] is: Klebsiella pneumoniae ATCC 10031 (KP-SEN), evolved line 3.
The mark [9] stands for this setting: Klebsiella pneumoniae ATCC 10031 (KP-SEN), ancestor strain, sheet fig 2a.
Setting [10] is: ancestor KP-SEN (Klebsiella pneumoniae ATCC 10031).
[11] abbreviates: ancestor EC-SEN (Escherichia coli ATCC 25922).

On to Tridecaptin M152-P3, for which the MIC in test [1] (Pseudomonas aeruginosa ATCC BAA-3107 (PA-SEN)) was 32 µg/mL; in test [1] (Pseudomonas aeruginosa LESB 58 (PA-MDR)), greater than 32 µg/mL; in test [3] (Klebsiella pneumoniae ATCC 10031 (KP-SEN)) it was 4 µg/mL; in test [3] (Klebsiella pneumoniae ATCC 700603 (KP-MDR)) it was 8 µg/mL; in test [4] (Acinetobacter baumannii ATCC 17978 (AB-SEN)) it was 8 µg/mL; in test [4] (Acinetobacter baumannii ATCC BAA-1605 (AB-MDR)), 8 µg/mL. For the same substance, the figures for the MIC in test [5] (Escherichia coli ATCC 25922 (EC-SEN)) and in test [5] (Escherichia coli NCTC 13846 (EC-MDR)) were 4 µg/mL and 8 µg/mL, respectively. The MIC of evolved line in test [2] (setting [6]) amounted to 16 µg/mL; in test [2] (setting [7]) it was 8 µg/mL; in test [2] (setting [8]), 16 µg/mL. The MIC of ancestor in test [3] (setting [9]) is 4 µg/mL; in test [3] (setting [10]), 4 µg/mL; in test [5] (Escherichia coli ATCC 25922 (EC-SEN), ancestor strain, sheet fig 2a), 4 µg/mL; in test [5] (setting [11]), 4 µg/mL.
For the substance polymyxin-B, the MIC of ancestor was found to be 1 µg/mL in test [1] (P. aeruginosa ATCC BAA 3107 (PA-SEN), ancestor strain, sheet fig 2a); 2 µg/mL in test [1] (P. aeruginosa LESB 58 (PA-MDR), ancestor strain, sheet fig 2a); 2 µg/mL in test [1] (Pseudomonas aeruginosa LESB 58 (PA-MDR), ancestor); 2 µg/mL in test [1] (ancestor PA-MDR (Pseudomonas aeruginosa LESB 58)); 1 µg/mL in test [1] (ancestor PA-SEN (Pseudomonas aeruginosa ATCC BAA 3107)); 2 µg/mL in test [3] (setting [9]). Also, the MIC of ancestor in test [3] (Klebsiella pneumoniae ATCC 700603 (KP-MDR), ancestor) came to 1 µg/mL; in test [3] (Klebsiella pneumoniae ATCC 700603 (KP-MDR), ancestor strain, sheet fig 2a) it was 1 µg/mL; in test [3] (setting [10]) it was 2 µg/mL; in test [4] (Acinetobacter baumannii ATCC 17978 (AB-SEN), ancestor strain, sheet fig 2a), 1 µg/mL; in test [4] (Acinetobacter baumannii ATCC BAA 1605 (AB-MDR), ancestor), 1 µg/mL; in test [4] (Acinetobacter baumannii ATCC BAA 1605 (AB-MDR), ancestor strain, sheet fig 2a) it was 1 µg/mL. Moreover, the MIC of ancestor in test [4] (ancestor AB-SEN (Acinetobacter baumannii ATCC 17978)) was 1 µg/mL; in test [5] (E. coli ATCC 25922 (EC-SEN), ancestor strain, sheet fig 2a) it was 1 µg/mL; in test [5] (E. coli NCTC 13846 (EC-MDR), ancestor strain, sheet fig 2a), 4 µg/mL; in test [5] (Escherichia coli NCTC 13846 (EC-MDR), ancestor), 4 µg/mL; in test [5] (setting [11]) it was 1 µg/mL. The MIC of evolved line in test [2] (setting [6]) came out at 2 µg/mL; in test [2] (setting [7]), 2 µg/mL; in test [2] (setting [8]), 2 µg/mL; in test [2] (Klebsiella pneumoniae ATCC 700603 (KP-MDR), evolved line 1), 0.5 µg/mL; in test [2] (Klebsiella pneumoniae ATCC 700603 (KP-MDR), evolved line 2), 4 µg/mL; in test [2] (Klebsiella pneumoniae ATCC 700603 (KP-MDR), evolved line 3), 32 µg/mL.
